Key:
Assay in all cases: relative viability (nuclei count vs DMSO), 5 days (fraction); higher = more cells survive
Etoposide + Pictilisib = compound: COc1cc([C@@H]2c3cc4c(cc3[C@@H](O[C@@H]3O[C@@H]5CO[C@@H](C)O[C@H]5[C@H](O)[C@H]3O)[C@H]3COC(=O)[C@H]23)OCO4)cc(OC)c1O [Etoposide] + CS(=O)(=O)N1CCN(Cc2cc3nc(-c4cccc5[nH]ncc45)nc(N4CCOCC4)c3s2)CC1 [Pictilisib] (partner 1 µM)
How it was run: (§1)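 Lung cancer cell lines in 1536-well plates got either a single drug or a fixed anchor-drug dose together with five library-drug doses (not always all listed) in √10 steps, by pin tool, on the day after seeding. Nuclei were counted after 5 days, and relative viability is the treated-to-vehicle ratio of nuclei counts. Values are medians of duplicate plates.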

Etoposide + AZD7762 = compound: COc1cc([C@@H]2c3cc4c(cc3[C@@H](O[C@@H]3O[C@@H]5CO[C@@H](C)O[C@H]5[C@H](O)[C@H]3O)[C@H]3COC(=O)[C@H]23)OCO4)cc(OC)c1O [Etoposide] + NC(=O)Nc1cc(-c2cccc(F)c2)sc1C(=O)N[C@H]1CCCNC1 [AZD7762] (partner 0.2 µM)
How it was run: as §1

Bleomycin + Olaparib = compound: CC1=C(N=C(N=C1N)[C@H](CC(=O)N)NC[C@@H](C(=O)N)N)C(=O)N[C@@H]([C@H](C2=CN=CN2)OC3C(C(C(C(O3)CO)O)O)OC4C(C(C(C(O4)CO)O)OC(=O)N)O)C(=O)N[C@H](C)[C@H]([C@H](C)C(=O)N[C@@H]([C@@H](C)O)C(=O)NCCC5=NC(=CS5)C6=NC(=CS6)C(=O)NCCC[S+](C)C)O [Bleomycin] + O=C(c1cc(Cc2n[nH]c(=O)c3ccccc23)ccc1F)N1CCN(C(=O)C2CC2)CC1 [Olaparib] (partner 8 µM); settings: main component drawn
How it was run: as §1

Bleomycin + Luminespib = compound: CC1=C(N=C(N=C1N)[C@H](CC(=O)N)NC[C@@H](C(=O)N)N)C(=O)N[C@@H]([C@H](C2=CN=CN2)OC3C(C(C(C(O3)CO)O)O)OC4C(C(C(C(O4)CO)O)OC(=O)N)O)C(=O)N[C@H](C)[C@H]([C@H](C)C(=O)N[C@@H]([C@@H](C)O)C(=O)NCCC5=NC(=CS5)C6=NC(=CS6)C(=O)NCCC[S+](C)C)O [Bleomycin] + CCNC(=O)c1noc(-c2cc(C(C)C)c(O)cc2O)c1-c1ccc(CN2CCOCC2)cc1 [Luminespib] (partner 0.01 µM); settings: main component drawn
How it was run: as §1

Cell Line	relative viability (Etoposide + Pictilisib; first compound 0.01 µM)	relative viability (Etoposide + Pictilisib; first compound 0.03162 µM)	relative viability (Etoposide + Pictilisib; first compound 0.1 µM)	relative viability (Etoposide + Pictilisib; first compound 0.3162 µM)	relative viability (Etoposide + Pictilisib; first compound 1 µM)	relative viability (Etoposide + AZD7762; first compound 0.01 µM)	relative viability (Etoposide + AZD7762; first compound 0.03162 µM)	relative viability (Etoposide + AZD7762; first compound 0.1 µM)	relative viability (Etoposide + AZD7762; first compound 0.3162 µM)	relative viability (Etoposide + AZD7762; first compound 1 µM)	relative viability (Bleomycin + Olaparib; first compound 0.01 µM)	relative viability (Bleomycin + Olaparib; first compound 0.03162 µM)	relative viability (Bleomycin + Olaparib; first compound 0.1 µM)	relative viability (Bleomycin + Olaparib; first compound 0.3162 µM)	relative viability (Bleomycin + Olaparib; first compound 1 µM)	relative viability (Bleomycin + Luminespib; first compound 0.01 µM)	relative viability (Bleomycin + Luminespib; first compound 0.03162 µM)	relative viability (Bleomycin + Luminespib; first compound 0.1 µM)	relative viability (Bleomycin + Luminespib; first compound 0.3162 µM)	relative viability (Bleomycin + Luminespib; first compound 1 µM)
HCC-78	0.218	0.202	0.144	0.188	0.15	0.808	0.771	0.392	0.658	0.409	0.592	0.617	0.652	0.488	0.487	–	–	–	–	–
IA-LM	0.398	0.31	0.236	0.282	0.138	–	–	–	–	–	0.681	0.629	0.716	0.474	0.328	–	–	–	–	–
COR-L23	0.733	0.726	0.401	0.418	0.122	–	–	–	–	–	0.253	0.188	0.133	0.0874	0.0995	0.501	0.352	0.258	0.122	0.122
NCI-H2023	0.225	0.255	0.145	0.124	0.0878	–	–	–	–	–	0.273	0.357	0.238	0.0886	0.09	0.526	0.531	0.454	0.128	0.0778
COR-L 105	0.374	0.395	0.337	0.327	0.335	–	–	–	–	–	0.614	0.518	0.526	0.417	0.352	0.665	0.743	0.562	0.555	0.386
SK-LU-1	0.603	0.597	0.308	0.277	0.174	–	–	–	–	–	0.38	0.436	0.397	0.307	0.29	0.197	0.202	0.272	0.216	0.191
NCI-H661	0.543	0.453	0.309	0.32	0.26	–	–	–	–	–	0.654	0.59	0.513	0.322	0.363	0.78	0.807	0.564	0.299	0.284
NCI-H2228	0.351	0.411	0.167	0.229	0.109	–	–	–	–	–	0.443	0.574	0.457	0.211	0.159	0.149	0.129	0.186	0.128	0.15
SW 1573	0.451	0.475	0.338	0.197	0.117	–	–	–	–	–	0.291	0.336	0.292	0.153	0.123	0.508	0.616	0.118	0.174	0.116
NCI-H522	–	–	–	–	–	0.891	0.97	0.69	0.761	0.824	0.498	0.627	0.625	0.404	0.333	0.775	0.66	0.508	0.319	0.414

From the supplement of paper PMC10307832
